Experimental data: patent US7208517B1, “Endothelin antagonists” (Abbott Labortories, priority 1994, dated 2007)

Key:
ETA Receptor = molecular target: T1, ETA Receptor (Rattus norvegicus, UniProt P26684); assay: [125I]ET-1 binding to membranes from MMQ cells (ETA receptor binding assay, Table 4); conditions: test compound at 1 μM; 0.1 nM [125I]ET-1, MMQ cell membranes, 4 hours at 25° C.
T1 construct: endogenous in cells; host or cells: MMQ rat pituitary cells (membranes)
T1 sequence (P26684 21-426): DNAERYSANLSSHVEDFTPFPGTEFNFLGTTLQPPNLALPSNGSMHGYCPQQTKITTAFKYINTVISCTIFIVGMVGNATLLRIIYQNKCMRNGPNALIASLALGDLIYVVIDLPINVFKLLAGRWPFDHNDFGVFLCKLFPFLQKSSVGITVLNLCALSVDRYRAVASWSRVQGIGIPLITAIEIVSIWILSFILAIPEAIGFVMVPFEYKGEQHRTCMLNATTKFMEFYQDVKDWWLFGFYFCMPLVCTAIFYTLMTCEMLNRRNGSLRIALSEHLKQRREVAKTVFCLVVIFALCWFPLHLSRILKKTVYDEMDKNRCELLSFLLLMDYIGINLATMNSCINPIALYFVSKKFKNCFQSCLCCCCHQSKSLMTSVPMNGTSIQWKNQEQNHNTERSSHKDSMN

[1] = system: ET-1-induced phosphatidylinositol hydrolysis in MMQ cells; assay: Determination of ET-1-induced phosphatidylinositol (PI) hydrolysis in MMQ cells; format: cell-based, rat; conditions: 1 nM ET-1 challenge, read-out: IC50 (inhibition of ET-induced increase in PI turnover)
Description: MMQ cells (0.4×10^6 cells/mL) were labeled with 10 μCi/mL of [^3H]myo-inositol in RPMI for 16 hours. The cells were washed with PBS, then incubated with Buffer A containing protease inhibitors and 10 mM LiCl for 60 minutes. The cells were then incubated with test compounds for 5 minutes, and then challenged with 1 nM ET-1. ET-1 challenge was terminated by the addition of 1.5 mL of 1:2 (v/v) chloroform-methanol. Total inositol phosphates were extracted after adding chloroform and water to give final proportions of 1:1:0.9 (v/v/v) chloroform-methanol-water as described by Berridge (Biochem. J. 206 587–595 (1982)). The upper aqueous phase (1 mL) was retained and a small portion (100 μL) was counted. The rest of the aqueous sample was analyzed by batch chromatography using anion-exchange resin AG1-X8 (Bio-Rad). […] The results of the above study clearly indicate that the compounds act as functional ET antagonists.

[2] = Determination of plasma protein binding (ultrafiltration, HPLC); format: in vitro ADME; conditions: fresh plasma, 1 hour at room temperature
Description: A stock solution of the test compound in 50% ethanol (2 mg/mL) was diluted 10× into PBS. A 0.4 mL sample of this secondary stock solution was added to 3.6 mL of fresh plasma, and incubated at room temperature for 1 hour. A 1 mL sample of this incubation mixture was transferred to a Centrifree ultrafiltration tube. The sample was centrifuged in a fixed-bucket rotor for approximately 2 min and the filtrate was discarded. The sample was centrifuged for another 15–30 min. A 100 μL sample of the ultrafiltrate was transfered to a micro HPLC sample vial containing […] of HPLC mobile phase and mixed thoroughly. A 50 μL sample was injected and the concentration of drug in the ultrafiltrate was determined by HPLC analysis compared against a standard sample prepared identically in the absence of plasma. Ultrafiltrate concentrations are calculated from a calibration curve. Protein binding is calculated according to the equation: % PB=[1−(Cu/Ci)]*100%
where Cu is the ultrafiltrate concentration and Ci is the initial plasma concentration.

human ETA receptor = molecular target: T2, human ETA receptor (Homo sapiens, UniProt P25101); assay: Albumin-induced binding shift study: [125I]ET-1 binding in presence of human serum albumin; conditions: 0%, 0.2%, 1% or 5% HSA
T2 construct: expressed in transfected cells; host or cells: CHO cells, permanently transfected
T2 sequence (P25101 21-427): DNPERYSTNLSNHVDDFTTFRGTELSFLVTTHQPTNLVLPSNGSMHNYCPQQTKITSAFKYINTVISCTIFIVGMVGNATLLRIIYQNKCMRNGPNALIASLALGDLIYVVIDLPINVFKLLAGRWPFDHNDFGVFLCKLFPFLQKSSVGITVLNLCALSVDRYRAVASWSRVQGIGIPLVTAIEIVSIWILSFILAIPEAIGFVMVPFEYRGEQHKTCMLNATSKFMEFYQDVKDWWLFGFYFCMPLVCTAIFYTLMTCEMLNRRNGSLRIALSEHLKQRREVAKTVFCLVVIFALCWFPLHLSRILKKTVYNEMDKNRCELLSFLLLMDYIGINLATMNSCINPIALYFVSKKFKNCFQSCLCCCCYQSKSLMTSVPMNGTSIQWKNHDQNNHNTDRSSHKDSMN
Description: Protocol for Albumin-induced binding shift studies: Binding assays were performed in 96-well microtiter plates precoated with 0.1% BSA unless otherwise indicated. Membranes were diluted in Buffer B (20 mM Tris, 100 mM NaCl, 10 mM MgCl2, pH 7.4, 0.1 mM PMSF, […] Pepstatin A, 0.025% bacitracin and 3 mM EDTA) to a final concentration of 0.05 mg/ml of protein. Varying concentrations of human serum albumin (HSA) were added as indicated. In competition studies, membranes were incubated with 0.1 nM of [^125I]ET in Buffer B (final volume: 0.2 ml) in the presence of increasing concentrations of unlabeled test ligands for 4 hours at 25° C. After incubation, unbound ligands were separated from bound ligands by vacuum filtration using glass-fiber filter strips in PHD cell harvesters (Cambridge Technology, Inc., Watertown, MA), followed by washing the filter strips with saline (1 ml) for three times. Nonspecific binding was determined in the presence of 1 μM ET-1. Inhibition of [^125]ET-1 binding to human ETA receptor by ETA antagonists. Each curve was determined in the presence of either 0%, 0.2%, 1%, or 5% HSA, and assays were performed as described above. The results are expressed as % of control binding, with [^125I]ET-1 binding in the absence of antagonist defining 100%. Each point represents the mean (±S.D.) of three determinations.

[3] = pH-solubility profile: maximum solubility in aqueous media at varying pH; format: physicochemical
From the text: Such increased aqueous solubility, coupled with the enhanced potency resulting from decreased protein binding, might make such compounds preferred for development as parenteral agents.

[4] = system: post-ischaemic renal vasoconstriction; conditions: rats; cited from earlier work
[5] = system: decrease in cerebral blood flow due to subarachnoid hemorrhage (SAH); conditions: rats; cited from earlier work
MAP = conditions: sodium-depleted squirrel monkeys; dosed orally; cited from earlier work

CCCCN(CCCC)C(=O)CN1C[C@H](c2ccc3c(c2)OCO3)[C@@H](C(=O)O)[C@@H]1c1ccc(OC)cc1 (relative stereo) [Example 43, trans,trans-2-(4-Methoxyphenyl)-4-(1,3-benzodioxol-5-yl)-1-(N,N-di(n-butyl)aminocarbonylmethyl)-pyrrolidine-3-carboxylic acid]
% Inhibition of ETA at 1 μM (ETA Receptor): 99.2%
IC50 [1]: 0.1 nM
percent of bound compound (plasma protein binding, % PB) [2]: > 98%
percent of bound compound (plasma protein binding, % PB) ([2]; listed as Example #43): >99.5%
shift of the binding curve in the presence of increasing albumin levels (human ETA receptor): rightward shift of the binding curve (toward decreasing potency)
maximum solubility ([3]; pH 5.1, about 25° C.): 0.08 mg/mL
maximum solubility ([3]; pH 6.5, about 25° C.): 0.51 mg/mL
maximum solubility ([3]; pH 7.1, about 25° C.): 0.99 mg/mL
maximum solubility ([3]; pH 7.6, about 25° C.): 1.14 mg/mL

COc1cccc(Oc2c(NS(=O)(=O)c3ccc(C(C)(C)C)cc3)ncnc2OCCO)c1 [Ro 46–2005]
post-ischaemic renal vasoconstriction [4]: prevents post-ischaemic renal vasoconstriction
decrease in cerebral blood flow due to subarachnoid hemorrhage (SAH) [5]: prevents the decrease in cerebral blood flow due to subarachnoid hemorrhage (SAH)
MAP (MAP): decreases MAP
